Experimental data published in patent US6911443B2 (Bayer Aktiengesellschaft, priority 2000, dated 2005).
pIC50: −log10 of the molar value.

biological target: T1, human Syk (GST-Syk) (Homo sapiens, UniProt P43405); experiment: Syk tyrosine kinase inhibitory assay; format: biochemical; conditions: Table 13
T1 construct: A cDNA fragment encoding human Syk openreading frame was cloned; made in house; host or cells: Sf21 insect cells (baculovirus, transfer vector pAcG2T)
In short: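 GST-tagged human Syk from baculovirus/Sf21, 0.65 nM final, with 3 μM biotinylated 30-residue activation-loop peptide and 30 μM ATP in Tris pH 8.0/MgCl2 buffer, 0.25% DMSO; 1 h at room temperature. Phosphopeptide captured on streptavidin, detected by europium-labelled anti-phosphotyrosine 4G10 time-resolved fluorescence.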

SMILES	Activity grade
Clc1ccc(-c2cc3ncnn3c(Sc3ccccc3)n2)cn1 [Example 14-9]	C-D
CCCCCCSc1nc(-c2ccc(OC)c(OC)c2)cc2nccn12 [Example 14-18]	C-D

same assay, conditions: Table 13; read-out: Activity grade

SMILES	pIC50
COc1ccc(CSc2nc(-c3ccc(OC)c(OC)c3)cc3nccn23)cc1 [Example 14-1]	5.70 to 6.30
COc1ccc(-c2cc3nccn3c(SCc3ccccc3)n2)cc1OC [Example 14-2]	> 6.30
COc1ccc(-c2cc3nccn3c(Oc3cccc(C)c3)n2)cc1OC [Example 14-3]	5.70 to 6.30
COc1ccc(-c2cc3nccn3c(Oc3ccccc3Br)n2)cc1OC [Example 14-4]	5.70 to 6.30
COc1ccc(-c2cc3nccn3c(Oc3cccc(Br)c3)n2)cc1OC [Example 14-5]	5.70 to 6.30
COc1ccc(-c2cc3nccn3c(Oc3ccc(Br)cc3)n2)cc1OC [Example 14-6]	5.70 to 6.30
c1ccc(Sc2nc(-c3ccccc3)cc3ncnn23)cc1 [Example 14-7]	5.00 to 5.70
Oc1ccc(Sc2nc(-c3ccccc3)cc3ncnn23)cc1 [Example 14-8]	5.00 to 5.70
COc1ccc(-c2cc3ncnn3c(Sc3ccc(/C=C/C(=O)O)cc3)n2)cc1OC [Example 14-10]	> 6.30
COc1ccc(-c2cc3ncnn3c(Sc3ccc(NCC(=O)O)cc3)n2)cc1OC [Example 14-11]	> 6.30
COc1ccc(-c2cc3ncnn3c(Oc3ccc(CCC(=O)O)cc3)n2)cc1OC [Example 14-12]	5.70 to 6.30
COc1ccc(-c2cc3nccn3c(SCc3cccc(C(F)(F)F)c3)n2)cc1OC [Example 14-13]	5.00 to 5.70
CCOC(=O)C(C)Sc1nc(-c2ccc(OC)c(OC)c2)cc2nccn12 (centres unmarked) [Example 14-14]	5.70 to 6.30
COc1ccc(-c2cc3nccn3c(SCc3ccc(Cl)cc3)n2)cc1OC [Example 14-15]	5.70 to 6.30
COc1ccc(-c2cc3nccn3c(SCC(F)(F)F)n2)cc1OC [Example 14-16]	> 6.30
CCCSc1nc(-c2ccc(OC)c(OC)c2)cc2nccn12 [Example 14-17]	> 6.30
COc1ccc(-c2cc3nccn3c(SCCN(C(C)C)C(C)C)n2)cc1OC [Example 14-19]	5.70 to 6.30

SMILES	pIC50
CCC(C)Sc1nc(-c2ccc(OC)c(OC)c2)cc2nccn12 (centres unmarked) [Example 14-20]	> 6.30
COc1ccc(-c2cc3nccn3c(SC3CCCC3)n2)cc1OC [Example 14-21]	> 6.30
COc1ccc(-c2cc3nccn3c(SCC(C)C)n2)cc1OC [Example 14-22]	> 6.30
CCC(C)CSc1nc(-c2ccc(OC)c(OC)c2)cc2nccn12 (centres unmarked) [Example 14-23]	5.70 to 6.30
COc1ccc(-c2cc3nccn3c(SCCNC(=O)OC(C)(C)C)n2)cc1OC [Example 14-24]	5.70 to 6.30
COc1ccc(-c2cc3nccn3c(SCCc3ccccc3)n2)cc1OC [Example 14-25]	5.70 to 6.30
CCCCCSc1nc(-c2ccc(OC)c(OC)c2)cc2nccn12 [Example 14-26]	5.70 to 6.30
COc1ccc(-c2cc3nccn3c(SCCN(C)C)n2)cc1OC [Example 14-27]	> 6.30
COc1ccc(-c2cc3nccn3c(SCCC(C)C)n2)cc1OC [Example 14-28]	5.70 to 6.30
COc1ccc(-c2cc3nccn3c(SC3CCCCC3)n2)cc1OC [Example 14-29]	> 6.30
COc1ccc(-c2cc3nccn3c(SCc3ccc(F)cc3)n2)cc1OC [Example 14-30]	5.70 to 6.30
COc1ccc(-c2cc3nccn3c(SCc3cccs3)n2)cc1OC [Example 14-31]	> 6.30
COc1ccc(-c2cc3nccn3c(SCCc3cnccn3)n2)cc1OC [Example 14-32]	> 6.30
CNC(=O)CSc1nc(-c2ccc(OC)c(OC)c2)cc2nccn12 [Example 14-33]	> 6.30
COc1ccc(-c2cc3nccn3c(Sc3ccc(CCC(=O)O)cc3C(N)=O)n2)cc1OC [Example 14-35]	5.70 to 6.30
COC(=O)c1cccnc1Nc1nc(-c2ccc(OC)c(OC)c2)cc2nccn12 [Example 14-36]	5.00 to 5.70

same assay, conditions: Table 14; read-out: Activity grade

SMILES	pIC50
COc1ccc(-c2cc3nccn3c(Sc3ccc(C(F)(F)F)cn3)n2)cc1OC [Example 15-1]	> 6.30
COc1ccc(-c2cc3nccn3c(Sc3ccncc3C(=O)O)n2)cc1OC [Example 15-2]	> 6.30
COc1ccc(-c2cc3nccn3c(Sc3ccc(SCC(=O)O)cc3)n2)cc1OC [Example 15-3]	> 6.30
COc1ccc(-c2cc3nccn3c(NC3CCCCC3)n2)cc1OC [Example 15-4]	5.70 to 6.30

same assay, conditions: Table 15; read-out: Activity grade

SMILES	pIC50
COc1ccc(-c2cc3nccn3c(Sc3nnnn3C)n2)cc1OC [Example 16-1]	> 6.30
COc1ccc(-c2cc3nccn3c(Sc3ccc(S(=O)(=O)N4CCCCC4)cc3)n2)cc1OC [Example 16-2]	> 6.30
COc1ccc(-c2cc3nccn3c(Sc3ccc(S(=O)(=O)N4CCCC4)cc3)n2)cc1OC [Example 16-5]	> 6.30
COc1ccc(-c2cc3nccn3c(Sc3ccncc3N)n2)cc1OC [Example 16-7]	> 6.30

same assay, conditions: Table 16; read-out: Activity grade

SMILES	pIC50
CCSc1nc(-c2ccc(OC)c(NCCCCN(C)C)c2)cc2nccn12 [Example 17-1]	5.70 to 6.30
CCSc1nc(-c2ccc(OC)c(NC)c2)cc2nccn12 [Example 17-2]	5.70 to 6.30
CCSc1nc(-c2ccc(NCCCN3CCCC3=O)c(OC)c2)cc2nccn12 [Example 17-3]	> 6.30
CCSc1nc(-c2ccc(NCCCN3CCN(C)CC3)c(OC)c2)cc2nccn12 [Example 17-4]	> 6.30
CCSc1nc(-c2ccc(OC)c(N(C)CCCN(C)C)c2)cc2nccn12 [Example 17-5]	5.70 to 6.30
CCSc1nc(-c2ccc(OC)c(NCCCN(C)C)c2)cc2nccn12 [Example 17-6]	> 6.30
CCSc1nc(-c2ccc(NCCN(C)C)c(OC)c2)cc2nccn12 [Example 17-7]	5.70 to 6.30
CCSc1nc(-c2ccc(OC)c(NCCN(C)C)c2)cc2nccn12 [Example 17-8]	5.70 to 6.30
CCSc1nc(-c2ccc(NCc3ccccc3)c(OC)c2)cc2nccn12 [Example 17-9]	5.00 to 5.70
CCSc1nc(-c2ccc(OCCOC)c(OC)c2)cc2nccn12 [Example 17-10]	5.70 to 6.30
CCSc1nc(-c2ccc(NCCCn3ccnc3)c(OC)c2)cc2nccn12 [Example 17-11]	> 6.30
CCSc1nc(-c2ccc(NCCCN3CCOCC3)c(OC)c2)cc2nccn12 [Example 17-12]	> 6.30
CCSc1nc(-c2ccc(NCCCN(C)C)c(OC)c2)cc2nccn12 [Example 17-13]	> 6.30
CCSc1nc(-c2ccc(NC)c(OC)c2)cc2nccn12 [Example 17-14]	5.70 to 6.30
CCSc1nc(-c2ccc(N(C)C)c(OC)c2)cc2nccn12 [Example 17-15]	> 6.30
COc1ccc(Nc2nc(-c3ccc(N4CCCC4)c(OC)c3)cc3nccn23)cc1 [Example 17-16]	> 6.30
CCSc1nc(-c2ccc(N(C)CCCN3CCOCC3)c(OC)c2)cc2nccn12 [Example 17-17]	> 6.30

same assay, conditions: Table 17; IC50 classes; read-out: Activity grade

SMILES	pIC50
COc1ccc(-c2cc3nccn3c(Nc3cc(N(C)C)ccc3C(N)=O)n2)cc1OC [Example 13]	> 6.30
COc1ccc(-c2cc3nccn3c(NC(=O)c3ccccc3)n2)cc1OC [Example 16]	5.70 to 6.30
COc1ccc(-c2cc3nccn3c(Sc3ccc(CCC(=O)N4CCOCC4)cc3)n2)cc1OC [Example 18]	> 6.30
COc1ccc(-c2cc3nccn3c(Sc3ccc4c(c3)CCC(C(=O)O)C4)n2)cc1OC (centres unmarked) [Example 19]	> 6.30
COc1ccc(-c2cc3nccn3c(Sc3ccc(CCC(N)=O)cc3)n2)cc1OC [Example 20]	> 6.30
CNC(=O)CCc1ccc(Sc2nc(-c3ccc(OC)c(OC)c3)cc3nccn23)cc1 [Example 21]	> 6.30
COc1ccc(-c2cc3nccn3c(NC(=O)Nc3ccccc3)n2)cc1OC [Example 22]	5.70 to 6.30
COc1ccc(-c2cc3nccn3c(Sc3ccc(CCC(=O)NCCC#N)cc3)n2)cc1OC [Example 23]	> 6.30
COc1ccc(-c2cc3nccn3c(Sc3ccc(CCc4nnn[nH]4)cc3)n2)cc1OC [Example 24]	> 6.30
COc1ccc(-c2cc3nccn3c(SCCN)n2)cc1OC [Example 25]	> 6.30
COc1ccc(-c2cc3nccn3c(SCC(=O)O)n2)cc1OC [Example 26]	5.00 to 5.70
CCSc1nc(-c2ccc(OC)c([N+](=O)[O-])c2)cc2nccn12 [Example 27]	> 6.30
CCSc1nc(-c2ccc(OC)c(OC)c2)cc2nc(C(N)=O)cn12 [Example 28]	5.70 to 6.30

same assay, conditions: in vitro; compounds as yielded by solid phase synthesis, purity about 40 to 90%; read-out: Activity grade (IC50 class)

SMILES	pIC50
COc1ccc(-c2cc3nccn3c(Sc3cccc(CC(O)O)c3)n2)cc1OC [Example 13-20]	> 6.30
COc1ccc(-c2cc3nccn3c(Sc3ccc(CCCC(=O)O)cc3)n2)cc1OC [Example 13-21]	5.00 to 5.70
COc1ccc(-c2cc3nccn3c(Sc3ccc(/C=C/C(=O)O)c(C)c3)n2)cc1OC [Example 13-22]	> 6.30
COC(=O)C1CCc2cc(Sc3nc(-c4ccc(OC)c(OC)c4)cc4nccn34)ccc2C1 (centres unmarked) [Example 13-23]	5.70 to 6.30
COc1ccc(-c2cc3nccn3c(Sc3ccc(CCC(=O)O)cc3)n2)cc1O [Example 13-24]	> 6.30
COc1ccc(-c2cc3nccn3c(Sc3ccc(CCC(=O)O)cc3)n2)cc1OC(C)=O [Example 13-25]	> 6.30
COc1cc(-c2cc3nccn3c(Sc3ccc(CCC(=O)O)cc3)n2)ccc1OCc1ccccc1 [Example 13-26]	> 6.30
COc1cc(-c2cc3nccn3c(Sc3ccc(CCC(=O)O)cc3)n2)ccc1O [Example 13-27]	> 6.30
COc1cc(-c2cc3nccn3c(Sc3ccc(CCC(=O)O)cc3)n2)ccc1OCCN1CCOCC1 [Example 13-28]	> 6.30
COc1ccc(-c2cc3nccn3c(Sc3nc[nH]n3)n2)cc1OC [Example 13-29]	> 6.30
COc1ccc(-c2cc3nccn3c(Nc3cc(N(C)C)ccc3C(N)=O)n2)cc1OC [Example 13]	> 6.30
Cc1c(N)cccc1Oc1nc(-c2ccc(O)c(O)c2)cc2ncnn12 [Example 14]	> 6.30
COc1ccc(-c2cc3nccn3c(NC(=O)c3ccccc3)n2)cc1OC [Example 16]	> 6.30
